System: male CD/Crl:CD(SD) rats
Experiment: Acute toxicity study, single peroral application, 14‐day observation
Type: in vivo
Settings: for Ataxia / Chromodacryorrhea / Dyspnoea / Inhibition of body weight gain / Mean body weight gain, After 7 d / Mean body weight, After 7 d / Mortality within 6 h / Mortality within 7 h / Mortality within 14 h / Mortality within 24 h / Necropsy findings / Piloerection / Ptosis / Reduced motility / Reduced muscle tone / Mean body weight gain, End / Mean body weight, End / Mean body weight, Start: p.o., males, n = 5; for Mean body weight gain, End / Mean body weight, End: 14‐day observation; for Mean body weight, Start: before administration
Experimental: In total, 90 male CD®/Crl:CD(SD) rats from Charles River Laboratories, Deutschland GmbH, were used after randomization. Five rats were selected for each concentration of the corresponding experimental substance. […] In addition, a control group was formed with five rats receiving only the HPMC gel.
Feeding was stopped approximately 16 h before the start of test substance application, whereas tap water continued to be available ad libitum. Granulated structural wood was used as bedding material in the cages; the material was changed and the cages were cleaned twice a week. […] The rooms were illuminated (approximately 150 lux from a ceiling height of approximately 1.50 m) and darkened for 12 h in turns.
Each animal was kept under observation, so that any behavior deviating from the norm could be systematically recorded. Observations were made before the peroral application of the respective active substance, immediately after, and 5, 15, 30, and 60 min and 3, 6, and 24 h after the start of application. […] We focused on the changes in the skin and fur, the eyes and mucous membranes, respiration, circulation, the autonomous and central nervous systems, somatomotor activity, and behavior patterns. They were also observed for possible tremors, convulsions, salivation, diarrhea, lethargy, sleep, and coma. Mortality checks were performed at least once a day to minimize the loss of animals during the study. The time of death was recorded as accurately as possible. Individual body weights were recorded before the administration of experimental substances and, subsequently, at weekly intervals, until the end of the study and at death. Weight changes were calculated when survival exceeded 1 day.
At the end of the experiments, all surviving animals were sacrificed, dissected, and examined macroscopically. All notable pathological changes were recorded. A microscopic examination of all organs showing obvious lesions was performed on animals that survived for 24 h or longer. Autopsy and macroscopic inspection of prematurely deceased animals were performed as soon as possible after death.

CCCCCCCCCCCCn1ccnc1 [I‐an, 1‐imidazolyldodecane]
Ataxia (10 mg/kg b.w.): None
Chromodacryorrhea (10 mg/kg b.w.): None
Dyspnoea (10 mg/kg b.w.): None
Inhibition of body weight gain (10 mg/kg b.w.): None
Mean body weight gain, After 7 d (10 mg/kg b.w.): +24.4%
Mean body weight, After 7 d (10 mg/kg b.w.): 293.2 g
Mortality within 6 h (10 mg/kg b.w.): 0
Mortality within 7 h (10 mg/kg b.w.): 0
Mortality within 14 h (10 mg/kg b.w.): 0
Mortality within 24 h (10 mg/kg b.w.): 0
Necropsy findings (10 mg/kg b.w.): None
Piloerection (10 mg/kg b.w.): None
Ptosis (10 mg/kg b.w.): None
Reduced motility (10 mg/kg b.w.): None
Reduced muscle tone (10 mg/kg b.w.): None
Mean body weight gain, End (10 mg/kg b.w.): +39.4%
Mean body weight, End (10 mg/kg b.w.): 328.4 g
Mean body weight, Start (10 mg/kg b.w.): 235.6 g
Ataxia (50 mg/kg b.w.): None
Chromodacryorrhea (50 mg/kg b.w.): None
Dyspnoea (50 mg/kg b.w.): None
Inhibition of body weight gain (50 mg/kg b.w.): None
Mean body weight gain, After 7 d (50 mg/kg b.w.): +26.6%
Mean body weight, After 7 d (50 mg/kg b.w.): 296.4 g
Mortality within 6 h (50 mg/kg b.w.): 0
Mortality within 7 h (50 mg/kg b.w.): 0
Mortality within 14 h (50 mg/kg b.w.): 0
Mortality within 24 h (50 mg/kg b.w.): 0
Necropsy findings (50 mg/kg b.w.): None
Piloerection (50 mg/kg b.w.): None
Ptosis (50 mg/kg b.w.): None
Reduced motility (50 mg/kg b.w.): None
Reduced muscle tone (50 mg/kg b.w.): None
Mean body weight gain, End (50 mg/kg b.w.): +40.6%
Mean body weight, End (50 mg/kg b.w.): 329.2 g
Mean body weight, Start (50 mg/kg b.w.): 234.2 g
Ataxia (100 mg/kg b.w.): None
Chromodacryorrhea (100 mg/kg b.w.): None
Dyspnoea (100 mg/kg b.w.): None
Inhibition of body weight gain (100 mg/kg b.w.): None
Mean body weight gain, After 7 d (100 mg/kg b.w.): +22.0%
Mean body weight, After 7 d (100 mg/kg b.w.): 283.6 g
Mortality within 6 h (100 mg/kg b.w.): 0
Mortality within 7 h (100 mg/kg b.w.): 0
Mortality within 14 h (100 mg/kg b.w.): 0
Mortality within 24 h (100 mg/kg b.w.): 0
Necropsy findings (100 mg/kg b.w.): None
Piloerection (100 mg/kg b.w.): None
Ptosis (100 mg/kg b.w.): None
Reduced motility (100 mg/kg b.w.): None
Reduced muscle tone (100 mg/kg b.w.): None
Mean body weight gain, End (100 mg/kg b.w.): +34.2%
Mean body weight, End (100 mg/kg b.w.): 311.8 g
Mean body weight, Start (100 mg/kg b.w.): 232.4 g
Ataxia (250 mg/kg b.w.): None
Chromodacryorrhea (250 mg/kg b.w.): None
Dyspnoea (250 mg/kg b.w.): None
Inhibition of body weight gain (250 mg/kg b.w.): None
Mean body weight gain, After 7 d (250 mg/kg b.w.): +19.4%
Mean body weight, After 7 d (250 mg/kg b.w.): 266.2 g
Mortality within 6 h (250 mg/kg b.w.): 0
Mortality within 7 h (250 mg/kg b.w.): 0
Mortality within 14 h (250 mg/kg b.w.): 0
Mortality within 24 h (250 mg/kg b.w.): 0
Necropsy findings (250 mg/kg b.w.): None
Piloerection (250 mg/kg b.w.): None
Ptosis (250 mg/kg b.w.): None
Reduced motility (250 mg/kg b.w.): None
Reduced muscle tone (250 mg/kg b.w.): None
Mean body weight gain, End (250 mg/kg b.w.): +32.7%
Mean body weight, End (250 mg/kg b.w.): 296.0 g
Mean body weight, Start (250 mg/kg b.w.): 223.0 g
Toxic signs (250 mg/kg bw): None
Time of premature death (500 mg/kg b.w.): 6 days
Ataxia (500 mg/kg b.w.): None
Chromodacryorrhea (500 mg/kg b.w.): None
Dyspnoea (500 mg/kg b.w.): None
Inhibition of body weight gain (500 mg/kg b.w.): None
Mean body weight gain, After 7 d (500 mg/kg b.w.): +21.8%
Mean body weight, After 7 d (500 mg/kg b.w.): 288.7 g
Mortality within 6 h (500 mg/kg b.w.): 0
Mortality within 7 h (500 mg/kg b.w.): 2
Mortality within 14 h (500 mg/kg b.w.): 2
Mortality within 24 h (500 mg/kg b.w.): 0
Necropsy findings (500 mg/kg b.w.): None
Piloerection (500 mg/kg b.w.): None
Ptosis (500 mg/kg b.w.): None
Reduced motility (500 mg/kg b.w.): None
Reduced muscle tone (500 mg/kg b.w.): None
Mean body weight gain, End (500 mg/kg b.w.): +38.4%
Mean body weight, End (500 mg/kg b.w.): 328.0 g
Mean body weight, Start (500 mg/kg b.w.): 237.0 g
Toxic signs (500 mg/kg bw): Mortality
Time of premature death (1000 mg/kg b.w.): 5 days
Ataxia (1000 mg/kg b.w.): None
Chromodacryorrhea (1000 mg/kg b.w.): None
Dyspnoea (1000 mg/kg b.w.): None
Inhibition of body weight gain (1000 mg/kg b.w.): None
Mean body weight gain, After 7 d (1000 mg/kg b.w.): +15.0%
Mean body weight, After 7 d (1000 mg/kg b.w.): 270.3 g
Mortality within 6 h (1000 mg/kg b.w.): 0
Mortality within 7 h (1000 mg/kg b.w.): 1
Mortality within 14 h (1000 mg/kg b.w.): 1
Mortality within 24 h (1000 mg/kg b.w.): 0
Necropsy findings (1000 mg/kg b.w.): None
Piloerection (1000 mg/kg b.w.): None
Ptosis (1000 mg/kg b.w.): None
Reduced motility (1000 mg/kg b.w.): None
Reduced muscle tone (1000 mg/kg b.w.): None
Mean body weight gain, End (1000 mg/kg b.w.): +36.2%
Mean body weight, End (1000 mg/kg b.w.): 320.0 g
Mean body weight, Start (1000 mg/kg b.w.): 235.0 g
Toxic signs (1000 mg/kg bw): Mortality
Premature deaths in the acute toxicity study (all dose groups, 30 rats per substance): three
Macroscopic necropsy findings (all doses): None
Lowest lethal dose (rats, single p.o. dose): 500 mg/kg bw
No Observed Adverse Effect Level (rats, single p.o. dose): 250 mg/kg bw
LD50(14 d) (rats, single p.o. dose, 14 days): >1000 mg/kg bw
